“Also recorded” adds a separate entry of the source. Where two headings read alike, the source gives them in different places. Blank lines part the entries; values can stand above or below the molecule they belong to.
How the values were obtained:
[1] = target: T1, recombinant SHIP2 phosphatase domain (Homo sapiens, UniProt O15357); assay: SHIP2 activity measurement, malachite green phosphate assay; type: biochemical; details: for Emax: read-out: max. inhibition of SHIP2 activity; for IC50: 100 μM PI(3,4,5)P3, four-parameter curve-fit
T1 construct: 100 ng of purified His-tagged recombinant SHIP2 phosphatase domain; His tag
T1 sequence (O15357 419-732 limits assumed): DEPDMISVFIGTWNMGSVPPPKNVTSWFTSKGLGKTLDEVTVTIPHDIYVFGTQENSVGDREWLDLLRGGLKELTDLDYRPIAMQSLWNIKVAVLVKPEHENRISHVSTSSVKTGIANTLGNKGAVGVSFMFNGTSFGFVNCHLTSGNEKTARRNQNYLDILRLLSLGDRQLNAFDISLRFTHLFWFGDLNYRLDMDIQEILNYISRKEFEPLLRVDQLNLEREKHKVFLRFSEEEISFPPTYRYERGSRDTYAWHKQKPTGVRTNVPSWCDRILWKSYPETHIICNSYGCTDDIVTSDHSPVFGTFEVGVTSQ
Protocol: For the activity measurements and other biological assays, sulfonanilides 1–12 were dissolved in DMSO and then further diluted into indicated concentrations in assay buffers or media. The capacities of 1–12 to inhibit SHIP2 activity and the IC50 values of 1–12 were measured using the recombinant SHIP2 phosphatase domain and malachite green phosphate assay at the High Throughput Biomedicine Unit (University of Helsinki, Finland). Different concentrations of 1–12 were dispensed to 384-well plates after which 100 ng of purified His-tagged recombinant SHIP2 phosphatase domain in reaction buffer (10 mM HEPES, pH 7.25, 6 mM MgCl2, 0.1% CHAPS, 250 mM sucrose and 0.25 mM EDTA) was added, and the plates were incubated for 15 min at room temperature. The reaction was started by adding 7.5 μL of PI(3,4,5)P3 (Echelon Biosciences, Salt Lake City, UT, USA) diluted in the reaction buffer (the final concentration of PI(3,4,5)P3 per well was 100 μM in the total volume of 15 μL), plates were incubated for 20 min at room temperature, and 15 μL of BIOMOL green reagent (Biomol, Plymouth Meeting, PA, USA) was added to wells. After 25 min incubation at room temperature, the absorbance was measured at 620 nm using a Pherastar FS plate reader (BMG Labtech, Offenburg, Germany) (n = 3 for each condition).
Data are presented as means ± STD or SEM of three or four independent experiments. Statistical analyses were performed using an unpaired, two-tailed Student’s t-test. P-values ≤0.05 were considered statistically significant. IC50-values were calculated using GraphPad Software, Inc., Prism version 6.05 (San Diego, CA, USA) using four-parameter curve-fit.

[2] = test system: L6 myotubes; assay: alamarBlue cell viability (cytotoxicity) assay; type: cell-based, Rat; details: for effect on metabolic activity of the cells (alamarBlue): 50 μM; for effect on cell viability: up to 200 μM
Protocol: (§1) Rat L6 myoblasts (American Type Culture Collection, Manassas, Virginia, USA) and L6 myoblasts stably overexpressing HA-tagged GLUT4 transporter (L6-GLUT4) were grown in high glucose DMEM (Sigma-Aldrich) supplemented with 10% FBS (Sigma-Aldrich, St. Louis, MO, USA), glutamine (Lonza; Walkersville, MD, USA), and penicillin–streptomycin (Sigma-Aldrich) at +37 °C in a humidified 5% CO2 atmosphere. For differentiation, the FBS concentration in the medium was lowered to 2%.
For cytotoxicity analyses, L6 myoblasts were seeded on 96-well plates, differentiated for 7 days into myotubes, and incubated O/N with 0-300 μM sulfonanilides after which 10 μL of alamarBlue cell viability reagent (ThermoFisher Scientific, Waltham, MA, USA) was added according to the manufacturer instructions. The fluorescence was measured at 544/590 nm ± 20 nm using a Hidex Sense microplate reader (Hidex, Turku, Finland) at 0 and 60 min time points after the addition of the alamarBlue reagent, and the viability of the cells was calculated. The assay was repeated three times (n = 4 for each condition).

[3] = test system: Akt phosphorylation in L6 myotubes; assay: Akt activation (phosphorylation at Ser473) assay, quantitative Western blotting; type: cell-based, Rat; details: 15 min pretreatment then 10 nM insulin for 15 min
Protocol: as §1
To measure the Akt activation (phosphorylation), L6 myoblasts were differentiated into myotubes for 7 days, serum starved O/N, and treated with 0–50 μM sulfonanilides for 15 min after which 10 nM insulin (Actrapid, Novo Nordisk, Bagsvaerd, Denmark) was added for an additional 15 min. The cells were lysed in NP-40 buffer (1% nonidet P-40, 20 mM Tris–HCl pH 7.4, 150 mM NaCl) supplemented with phosphatase inhibitors (50 mM NaF and 1 mM Na3VO4) and protease inhibitor cocktail (cOmpleteProtease Inhibitor Coctail tablets, Roche Diagnostics GmbH, Mannheim, Germany) and then immunoblotted as in Tolvanen et al.[32] Briefly, samples were separated in 8% polyacrylamide gels and transferred onto PVDF membrane (Immobilon-FL PVDF transfer membrane, Merck Millipore Ltd., Tullagreen, Ireland). […]

[4] = test system: L6-GLUT4 myotubes; assay: Radioactive 2-deoxyglucose glucose uptake assay; type: cell-based, Rat; details: 50 μM, 20 h; for increase of glucose uptake with insulin stimulation: 100 nM insulin 15 min, compared to control cells stimulated with insulin; for increase of glucose uptake without insulin: serum starvation, no insulin, vs control
Protocol: as §1
Glucose uptake was measured by a radioactive 2-deoxyglucose assay. L6 myotubes overexpressing GLUT4 glucose transporter were differentiated for 8–9 days. Cells were serum-starved for 20 h supplemented with 50 μM of sulfonanilides 10 or 11, 50 μM of metformin. Thereafter, cells were stimulated or not with 100 nM insulin for 15 min at 37 °C in DMEM (without D-glucose, L-glutamine, phenol red, and sodium pyruvate) (Gibco/Thermo Fisher Scientific). The cells were exposed to 1 μCi/mL 2-deoxy-D-[1, 2-^3H(N)]-glucose (PerkinElmer, Waltham MA, USA) for 5 min at 37 °C. Cells were lysed in 1% Triton X-100 in PBS, and the radioactivity of lysates was measured with a Wallac 1450 Microbeta Trilux liquid scintillator and a luminescense counter (PerkinElmer). Four independent experiments were performed, with 4 technical replicates for each condition.

[5] = test system: L6-GLUT4 myotubes; assay: On-Cell Western for HA-GLUT4 on the plasma membrane; type: cell-based, Rat; details: for increase of GLUT4 on the plasma membrane with insulin stimulation, compared to control cells treated with insulin / increase of GLUT4 on the plasma membrane with insulin stimulation, compared to control cells without insulin / increase of GLUT4 on the plasma membrane without insulin stimulation: 50 μM, 20 h; for increase of GLUT4 on the plasma membrane without insulin stimulation: no insulin, vs control without insulin
Protocol: as §1
Differentiated L6-GLUT4 myotubes cultured on 96-well plate were treated with sulfonanilides 10 or 11 at 50 μM concentration for 20 h, of which the last 4 h in a serum-free medium. The quiescent cells were stimulated or not with 100 nM insulin for 15 min at 37 °C and fixed with 2% paraformaldehyde on ice for 5 min followed by 20 min at room temperature. The cells were incubated with a primary antibody against HA.11 epitope tag (#901513, BioLegend, San Diego, CA, USA) diluted 1/100 in 50% Odyssey Blocking buffer (LI-COR) in PBS at room temperature for 1 h, followed by incubation with a secondary antibody (IRDye 800CW Donkey anti-Mouse, LI-COR) and the nuclear marker DRAQ-5 (Thermo Fisher Scientific, Rockford, IL, USA) at room temperature for 1 h. The fluorescent signals were detected and quantified with an Odyssey infrared imager (LI-COR). DRAQ-5 was used for normalization. Four independent experiments were performed, resulting in total in 30–34 replicates for each condition.

[6] = test system: L6-GLUT4 myotubes; design: method as in PMID 30321069, PMID 1505458; details: cited from earlier work
[7] = purified His-tagged SHIP2 phosphatase domain
[8] = purified His-tagged SHIP2 phosphatase domain, 100 μM PI(3,4,5)P3, n = 3

Molecule: CN(c1ccccc1)S(=O)(=O)c1ccccc1 [Compound 1, N-Methylbenzenesulfonanilide]
Emax [1]: 6 ± 2.8%

Molecule: Cc1ccc(S(=O)(=O)N(C)c2ccccc2)cc1 [Compound 2, N-Methyl-p-toluenesulfonanilide]
Emax [1]: 10 ± 7.2%

Molecule: CN(c1ccccc1)S(=O)(=O)c1ccc2ccccc2c1 [Compound 3, N-Methyl-2-naphthalenesulfonanilide]
IC50 [1, 7]: > 50 µM | Emax [1, 8]: 15 ± 1.6%

Molecule: CN(c1ccccc1)S(=O)(=O)c1ccoc1 [Compound 5, N-Methyl-3-furansulfonanilide]
Emax [1, 8]: 3 ± 1.5%

Molecule: Cc1ccc(S(=O)(=O)Nc2ccc(F)cc2Br)cc1 [Compound 7, 2′-Bromo-4′-fluoro-p-toluenesulfonanilide]
IC50 [1, 7]: > 50 µM | Emax [1, 8]: 17 ± 2.1%

Molecule: CN(C)C(=N)N=C(N)N [Metformin, metformin, reference compound]
increase of glucose uptake with insulin stimulation [4]: did not enhance glucose uptake; also recorded: did not increase glucose uptake | increase of glucose uptake without insulin [4]: did not enhance glucose uptake | concentration necessary to increase glucose uptake into myotubes [6]: 2 mM

Molecule: insulin: insulin (Actrapid, Novo Nordisk) used to stimulate myotubes
increase of GLUT4 on the plasma membrane by insulin stimulation alone ([5]; control myotubes without sulfonanilide, 100 nM insulin 15 min, vs no insulin): 16%

More lines, main results first:

IC50 [1, 7]: > 50 µM | Emax [1, 8]: 12 ± 4%
Molecule: CN(c1ccccc1)S(=O)(=O)c1ccc(F)c(F)c1F [Compound 4, N-Methyl-2,3,4-trifluorobenzenesulfonanilide]

IC50 [1, 7]: > 50 µM | Emax [1, 8]: 11 ± 2.2%
Molecule: CN(c1ccccc1)S(=O)(=O)c1cccs1 [Compound 6, N-Methyl-2-thiophenesulfonanilide]

Emax [1, 8]: 10 ± 5.1%
Molecule: O=S(=O)(Nc1ccc(F)cc1Br)c1ccc(F)c(F)c1F [Compound 8, 2′-Bromo-4′-fluoro-2,3,4-trifluorobenzenesulfonanilide]

Emax [1, 8]: 9 ± 3%
Molecule: O=S(=O)(Nc1ccc(F)cc1Br)c1ccoc1 [Compound 9, 2′-Bromo-4′-fluoro-3-furansulfonanilide]

IC50 [1, 7]: 41.2 µM | Emax [1, 8]: 45 ± 17%
Molecule: O=S(=O)(Nc1ccc(F)cc1Br)c1cccs1 [Compound 10, 2′-Bromo-4′-fluoro-2-thiophenesulfonanilide]
effect on metabolic activity of the cells (alamarBlue) [2]: slightly enhance the metabolic activity | effect on cell viability ([2]; O/N incubation): no or very little effect on cell viability; also recorded: not cytotoxic | Akt activation at 50 μM [3]: Neither sulfonanilide 10 nor 11 activated Akt; also recorded: did not enhance Akt activation | increase of glucose uptake with insulin stimulation [4]: 30% | increase of glucose uptake without insulin [4]: 18–19% | increase of GLUT4 on the plasma membrane with insulin stimulation, compared to control cells treated with insulin ([5]; 100 nM insulin 15 min): 10% | increase of GLUT4 on the plasma membrane with insulin stimulation, compared to control cells without insulin ([5]; 100 nM insulin 15 min): 26% | increase of GLUT4 on the plasma membrane without insulin stimulation [5]: 4%

IC50 [1, 7]: 7.07 µM | Emax [1, 8]: 45 ± 0.7%
Molecule: CN(c1ccc(F)cc1F)S(=O)(=O)c1ccc(F)c(F)c1F [Compound 11, 2′,4′-Difluoro-N-methyl-2,3,4-trifluorobenzenesulfonanilide]
effect on metabolic activity of the cells (alamarBlue) [2]: slightly enhance the metabolic activity | decrease of cell viability ([2]; 300 μM, O/N incubation): 24% | effect on cell viability ([2]; O/N incubation): no or very little effect on cell viability | Akt activation at 50 μM [3]: Neither sulfonanilide 10 nor 11 activated Akt; also recorded: did not enhance Akt activation | increase of glucose uptake with insulin stimulation [4]: 23% | increase of glucose uptake without insulin [4]: 18–19% | increase of GLUT4 on the plasma membrane with insulin stimulation, compared to control cells treated with insulin ([5]; 100 nM insulin 15 min): no increase | increase of GLUT4 on the plasma membrane with insulin stimulation, compared to control cells without insulin ([5]; 100 nM insulin 15 min): 15% | increase of GLUT4 on the plasma membrane without insulin stimulation [5]: 8%

max. inhibition of SHIP2 activity [1, 8]: almost inactive | Emax [1, 8]: 5 ± 1.7%
Molecule: CN(c1ccc(F)cc1F)S(=O)(=O)c1cccs1 [Compound 12, 2′,4′-Difluoro-N-methyl-2-thiophenesulfonanilide]
